Assay results: patent publication US10183273B2, “Absorbent article comprising cyclodextrin complexes” (The Procter & Gamble Company, priority 2016, dated 2019)

Experiment: Thiol Vapor Pressure Suppression (TVPS) index, zNose fast GC headspace
Set-up: key: % reduction in butanethiol headspace peak area vs control
Settings: percentage reduction in butanethiol headspace peak area; 5 μl compound, 37° C. 4 hours
Text: (§1) Thiol Vapor Pressure Suppression (TVPS) index is a measure of the reduction in butanethiol concentration in the headspace by a compound, as measured using a fast GC instrument, the zNose 7100 (Electronic Sensor Technologies, Newbury Park, Calif.).
as §1, with “Calif.) based on an Surface Acoustic Wave (SAW) Quartz microbalance detector, or equivalent.” for “Calif.).”
Before any measurements the instrument is calibrated according to manufacturer's instructions under the same experimental settings. The instrument has a DB-5 column (also available from Electronic Sensor Technologies, Newbury Park, Calif.) 1 m in length, 0.25 μm phase thickness, and 0.25 mm in diameter.
For analysis, the zNose is programmed with the Sensor Temperature, Inlet Temperature, Valve Temperature, and Initial Column Temperature all set to 40° C. The oven is temperature gradient is programmed at a rate of 10 C°/s from 40° C. to a final temperature of 200° C.
TVPS of a compound is measured in the following way: 100 μl±1 μl of a 1% v/v butanethiol (99%, purity, available from Sigma-Aldrich, St. Louis, Mo.) solution in ethanol (200 proof) is added into a 1 ml vial (8×40 mm). These vials are borosilcate glass straight walled vial. In another 1 ml vial (8×40 mm), 5 μl±0.2 μl of the compound is added. Both open vials are then placed inside a 20 mL headspace vial (22×75 mm), and the vial is immediately sealed using a screw thread closure with PTFE/Silicone septa. The vial is heated to 37° C. for 4 hours. After 4 hours, the vial is removed from the oven and let to equilibrate at 25° C.±2° C. for 15 minutes. The headspace inside the vial is sampled using the zNose is sampled for 10 s and analyzed following the experimental protocol outlined above. Samples with butanethiol alone, and the volatile active alone, are run using the same protocol to identify the peaks for both materials. An acceptable retention index for butanethiol is 720±30. If the peaks butanethiol peak and the volatile material peak co-elute, one skilled in the art can modify the protocol settings to separate those peaks to achieve a minimum resolution of 1.5. For example one can change the column temperature ramp rate. In between samples, the instrument needs to be cleaned to remove any trace materials. To clean the instrument, the instrument is run without samples as needed until no peaks greater than 100 counts are observed.
The amount of butanethiol in the headspace is measured from the area of the peak on the chromatograph for butanethiol (ABtSH,Rx). To calculate the percentage of butanethiol reduction in the headspace, a control with the butanethiol solution without the volatile material is run in the same manner and the area is measured as well (ABtSH,C). TVPS is then measured as the percentage reduction in butanethiol area calculated using the following formula: […]

| Structure (SMILES) | TVPS |
| --- | --- |
| Cc1ccc(C=O)s1 [5-methyl-2-thiophene-carboxaldehyde] | 67.4 |
| C=CC(C)CCC=C(C)CCC=O (stereo not drawn) [Floral Super] | 52.4 |
| CC(C)c1cccc(C(C)CC=O)c1 (stereo not drawn) [Florhydral] | 53.3 |
| CCCCCCC(C=O)=Cc1ccccc1 [Hexylcinnamic aldehyde] | 8.0 |
| CC(C)=CCCC(C)CCCC(C)C=O (stereo not drawn) [adoxal] | 24.4 |
| CC1=CC(C)C(C=O)CC1 (stereo not drawn) [ligustral] | 42.5 |
| CC(C)=CCCC(C)C=O (stereo not drawn) [melonal] | 20.4 |
| CC(C)=CCC/C(C)=C\C=O [neral] | 17.1 |
| CCC/C=C/C=O [trans-2-hexenal] | 27.1 |
